# Patent US20070197452A1, “Treatment of amyloid-related diseases” (priority 2006, published 2007)
# What was measured:
# [1] = tested on: TgCRND8 mice; assay: Cerebral amyloid plaque burden (anti-Aβ immunostaining, image analysis); assay type: in vivo, mouse; conditions: TgCRND8 mice at six months of age; vs untreated
# Protocol: Cerebral amyloid burden. […] To generate sets of systematic uniform random sections, 5 μm serial sections were collected across the entire hemisphere. Sets of sections at 50 μm intervals were used for analyses (10-14 sections/set). Plaques were identified after antigen retrieval with formic acid, and incubation with primary anti-Aβ antibody (Dako M-0872), followed by secondary antibody (Dako StreptABCcomplex/horseradish kit). End products were visualized with DAB and were counter-stained with luxol fast blue. Amyloid plaque burden was assessed with Leco IA-3001 image analysis software interfaced with Leica microscope and Hitachi KP-M1U CCD video camera. Openlab imaging software (Improvision, Lexington, Mass.) was then used to convert micrographs to binary images for plaque number and plaque area determinations. Vascular amyloid burden was defined as amyloid originating from or surrounding blood vessels and was analysed similarly. Cerebral Aβ burden. […] Sets of sections at […] intervals for analyses (10-14 sections per set) were used. Plaques with primary Aβ-specific antibody (Dako M-0872) were identified and visualized with DAB. AP plaque burden was assessed with Openlab imaging software (Improvision) and used to convert micrographs to binary images for determinations of plaque number and plaque area. Vascular Aβ burden was defined as Aβ plaques originating from or surrounding blood vessels and was analyzed similarly. Cerebral Aβ burden. […] To generate sets of systematic uniform random sections, 5 μm serial sections were collected across the entire hemisphere. Sets of sections at 50 μm intervals were used for analyses (10-14 sections/set). Plaques were identified after antigen retrieval with formic acid, and incubation with primary anti-Aβ antibody (Dako M-0872), followed by secondary antibody (Dako StreptABCcomplex/horseradish kit). End products were visualized with DAB and were counter-stained with luxol fast blue. Aβ plaque burden was assessed with Leco IA-3001 image analysis software interfaced with Leica microscope and Hitachi KP-M1U CCD video camera. Openlab imaging software (Improvision, Lexington, Mass.) was then used to convert micrographs to binary images for plaque number and plaque area determinations. Vascular Aβ burden was defined as Aβ plaques originating from or surrounding blood vessels and was analyzed similarly.
# [2] = tested on: TgCRND8 mice; assay: Survival census (Kaplan-Meier); assay type: in vivo, mouse; conditions: prophylactic treatment, vs untreated, n=35 per group
# Protocol: (§1) Survival Census: The probability of survival was assessed by the Kaplan-Meier technique, computing the probability of survival at every occurrence of death, thus making it suitable for small sample sizes. For the analyses of survival, 35 mice were used for each treatment group. The Tarone-Ware test was used to assess effects of treatments.
# as §1, with “census.” for “Census:”, “using” for “by”
# [3] = tested on: TgCRND8 mice; assay: Morris water maze spatial reference memory test; assay type: in vivo, mouse; conditions: prophylactic, 6 weeks to 6 months of age
# Protocol: Behavioural tests: Morris Water Maze testing was performed as previously described. After non-spatial pre-training, mice underwent place discrimination training for 5 days with 4-trials per day, followed by a cued visible platform to rule out general motivational, learning deficits and motor problems, and a probe trial to evaluate memory. […] Open field test for motor activity was preformed as described previously. Duration of walking, pausing and grooming were analyzed as indices of spontaneous locomotor activity. Sensorimotor function was examined with an EconomexTM accelerating rotarod (Columbus Instruments, Columbus, Ohio), as described elsewhere. The rod was set to accelerate at a rate of 0.2 r.p.m./s, from an initial, constant speed of 5 r.p.m. Latency to fall was recorded in four daily trials, conducted at 30 min intervals. All mice were trained for seven days before testing. The test day performance score for each animal was obtained by summing its latency to fall over the four trials Behavioral tests. Morris water maze testing was carried out as previously described. After nonspatial pretraining, mice underwent place discrimination training for 5 d with four trials per day, followed by a cued visible platform trial and a probe trial. An open-field test for motor activity was carried out as described previously. Sensorimotor function was assessed with an Economex accelerating rotarod (Columbus Instruments) as previously described. Behavioural tests. Morris Water Maze testing was performed as previously described. After non-spatial pre-training, mice underwent place discrimination training for 5 days with 4-trials per day, followed by a cued visible platform to rule out general motivational, learning deficits and motor problems, and a probe trial to evaluate memory. The probe trial was conducted at 72 h after the last testing, and used an annulus-crossing index to assess spatial recall. The annulus-crossing index measures the number of passes over the original platform position relative to passes over the other three quadrants. […] Open field test for motor activity was performed as described previously
# [4] = molecular target: Aβ (Homo sapiens, UniProt P05067); conditions: reference [11]; cited from earlier work
# [5] = 6-18 grams/day/adult or 86-257 mg/Kg/day; cited from earlier work
# [6] = Pilot in vivo studies; conditions: data not shown
# [7] = tested on: mouse model of Huntington disease; conditions: oral administration; reference [26]; cited from earlier work
# Aβ, sequence (P05067 672-713 limits assumed): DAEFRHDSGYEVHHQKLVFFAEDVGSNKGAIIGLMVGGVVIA
smiles,measurement,setting,value
"OC[C@@H](O)[C@@H](O)[C@H](O)[C@H](O)CO [mannitol, reference compound]",plaque count as measure of total plaque burden,[1],indistinguishable from untreated TgCRND8 mice
same,survival (Kaplan-Meier cumulative survival),[2],not significantly different
same,cognitive performance compared with non-Tg littermates,[3],significantly different from mannitol treated non-Tg littermates
same,cognitive performance compared with untreated TgCRND8 mice,[3],no effect on behavior
same,cognitive performance compared with untreated TgCRND8 mice,[3]; listed as Mannitol,not significantly different from untreated TgCRND8 mice
"O[C@H]1[C@H](O)[C@@H](O)[C@H](O)[C@@H](O)[C@H]1O [myo-cyclohexanehexol, 1,2,3,5/4,6-(myo-) cyclohexanehexol]",effectiveness in prior in vitro studies,[4],only weakly effective
same,toxicity,[5],no toxicity
same,benefit in pilot in vivo studies,[6],no significant benefit
OC[C@H]1O[C@H](O[C@H]2O[C@H](CO)[C@@H](O)[C@H](O)[C@H]2O)[C@H](O)[C@@H](O)[C@@H]1O [trehalose],effects in mouse model of Huntington disease,[7],"decreased polyglutamine aggregates in brain, improved motor dysfunction and extended lifespan"
